Experimental data taken from patent publication US8268754B2, “Substituted dihydroazole compound and pest control agent” (Nissan Chemical Industries, Ltd., priority 2007, dated 2012).

Key:
Type in all cases: in vivo
Helicoverpa armigera = test: Mortality test for Helicoverpa armigera (cabbage leaf dip); conditions: foliar, 144 h, drug solution 100 ppm, 2 instar larva, after 6 days, 25° C., 12 replications
Procedure: A 10% emulsifiable concentrate of the compound of the present invention (depending on the type of the compound, a 10% wettable powder was subjected to the test) was diluted with water containing a spreader to prepare a drug solution in a concentration of 100 ppm. In this drug solution, a leaf of cabbage was immersed for about 10 seconds and was air-dried and then put into a petri dish. In the petri dish, one 2 instar larva of Helicoverpa armigera per petri dish was released and the petri dish was capped and stored in a thermostatic room of 25° C. The number of killed larvae after 6 days was counted and the mortality was calculated from the same calculation formula as that in Test Example 1. Here, the test was carried out in 12 replications.

Planococcus kraunhiae = test: Mortality test for Planococcus kraunhiae (kidney bean leaf spray); conditions: 144 h, drug solution 500 ppm, sprayed 2.5 mL per cup, 1 instar larvae, after 6 days, 25° C.
Procedure: (§1) In a styrol cup having an inner diameter of 7 cm, a wet filtration paper was laid, and on the paper, a leaf of kidney bean cut out so as to have the same diameter as the inner diameter of the cup was laid, followed by inoculating the leaf with ten 1 instar larvae of Planococcus kraunhiae per leaf. A 10% emulsifiable concentrate of the compound of the present invention (depending on the type of the compound, a 10% wettable powder was subjected to the test) was diluted with water containing a spreader to prepare a drug solution in a concentration of 500 ppm. The drug solution was sprayed using a rotary spray tower in an amount of 2.5 mL per styrol cup and the cup was capped and stored in a thermostatic room of 25° C. The number of killed larvae after 6 days was counted and the mortality was calculated from the same calculation formula as that in Test Example 1. Here, the test was carried out in two replications.

Bemisia argentifolii = test: Mortality test for Bemisia argentifolii (tomato leaf spray); conditions: 144 h, drug solution 500 ppm, sprayed 2.5 mL per cup, eggs on tomato leaf, killed larvae after 6 days, 25° C.
Procedure: In a styrol cup having an inner diameter of 7 cm, a wet filtration paper was laid, and on the paper, a cut-out leaf of tomato on which Bemisia argentifolii laid eggs (10 eggs/leaf) was laid. A 10% emulsifiable concentrate of the compound of the present invention (depending on the type of the compound, a 10% wettable powder was subjected to the test) was diluted with water containing a spreader to prepare a drug solution in a concentration of 500 ppm. The drug solution was sprayed using a rotary spray tower in an amount of 2.5 mL per styrol cup and the cup was capped and stored in a thermostatic room of 25° C. The number of killed larvae after 6 days was counted and the mortality was calculated from the same calculation formula as that in Test Example 1. Here, the test was carried out in two replications.

Tetranychus urticae = test: Mortality test for Tetranychus urticae (kidney bean leaf spray); conditions: 144 h, drug solution 500 ppm, sprayed 2.5 mL per cup, larvae, after 6 days, 25° C.
Procedure: as §1, with “ten” for “ten 1 instar”, “Tetranychus urticae” for “Planococcus kraunhiae”

Liriomyza trifolii = test: Mortality test for Liriomyza trifolii (kidney bean leaf dip); conditions: foliar, 144 h, drug solution 500 ppm, eggs on kidney bean leaf, killed larvae after 6 days, 25° C.
Procedure: A 10% emulsifiable concentrate of the compound of the present invention (depending on the type of the compound, a 10% wettable powder was subjected to the test) was diluted with water containing a spreader to prepare a drug solution in a concentration of 500 ppm. In this drug solution, a leaf of kidney bean which was cut out to a diameter of 7 cm, on which Liriomyza trifolii laid eggs (10 eggs/leaf) was immersed for about 10 seconds and was air-dried and then laid on a wet filtration paper laid in a styrol cup having an inner diameter of 7 cm. The styrol cup was capped and stored in a thermostatic room of 25° C. The number of killed larvae after 6 days was counted and the mortality was calculated from the same calculation formula as that in Test Example 1. Here, the test was carried out in two replications.

Plutella xylostella = test: Mortality test for Plutella xylostella (cabbage leaf dip); conditions: foliar, 144 h, drug solution 100 ppm (mark *), 2 instar larvae, after 6 days, 25° C.
Procedure: A 10% emulsifiable concentrate of the compound of the present invention (depending on the type of the compound, a 10% wettable powder was subjected to the test) was diluted with water containing a spreader to prepare a drug solution in a concentration of […]. In this drug solution, a leaf of cabbage was immersed for about 10 seconds and was air-dried and then put into a petri dish. In the petri dish, five 2 instar larvae of Plutella xylostella per petri dish were released and the petri dish was capped and stored in a thermostatic room of 25° C. The number of killed larvae after 6 days was counted and the mortality was calculated from the following calculation formula: Mortality (%)=(number of killed insects/number of released insects)×100. Here, the test was carried out in two replications.

Aulacophora femoralis = test: Mortality test for Aulacophora femoralis (cucumber leaf dip); conditions: foliar, 144 h, drug solution 500 ppm, 2 instar larvae, after 6 days, 25° C.
Procedure: A 10% emulsifiable concentrate of the compound of the present invention (depending on the type of the compound, a 10% wettable powder was subjected to the test) was diluted with water containing a spreader to prepare a drug solution in a concentration of 500 ppm. In this drug solution, a leaf of cucumber was immersed for about 10 seconds and was air-dried and then put into a petri dish. In the petri dish, five 2 instar larvae of Aulacophora femoralis per petri dish were released and the petri dish was capped and stored in a thermostatic room of 25° C. The number of killed larvae after 6 days was counted and the mortality was calculated from the same calculation formula as that in Test Example 1. Here, the test was carried out in two replications.

[1] = system: Frankliniella occidentalis; test: Mortality test for Frankliniella occidentalis (kidney bean leaf spray); conditions: 48 h, drug solution 500 ppm, sprayed 2.5 mL per cup, 1 instar larvae, after 2 days, 25° C.
Procedure: as §1, with “Frankliniella occidentalis” for “Planococcus kraunhiae”, “2” for “6”

O=C(NCc1ccc(C2=NCC(c3cc(Cl)cc(Cl)c3)(C(F)(F)F)C2)cc1Br)C1CC1 (centres unmarked) [No. 1-001, 2-bromo-N-cyclopropylcarbonyl-4-[4-(3,5-dichlorophenyl)-4-trifluoromethyl-4,5-dihydro-3H-pyrrole-2-yl] benzylamine]
≥ 80%: mortality at 100 ppm (Helicoverpa armigera)

FC(F)(F)C1(c2cc(Cl)cc(Cl)c2)CN=C(c2ccc(-n3cncn3)cc2)C1 (centres unmarked) [No. 3-001, 4-(3,5-dichlorophenyl)-2-[4-(1,2,4-triazole-1-yl)phenyl]-4-trifluoromethyl-4,5-dihydro-3H-pyrrole]
≥ 80%: mortality at 500 ppm (Planococcus kraunhiae) | mortality at 500 ppm (Bemisia argentifolii) | mortality at 500 ppm (Tetranychus urticae) | mortality at 500 ppm (Liriomyza trifolii) | mortality at 100 ppm (Plutella xylostella) | mortality at 500 ppm (Aulacophora femoralis) | mortality at 500 ppm [1]
